Data taken from patent publication US8921328B2, “E-selectin antagonists” (GlycoMimetics, Inc., priority 2010, dated 2014).

biological target: T1, E-selectin/IgG construct (Homo sapiens, UniProt P16581); assay: BIAcore SPR ranking procedure at a single concentration (relative binding affinity); conditions: SPR signal at single concentration 0.05 μM divided by molecular weight, normalized to internal standard; KD larger than for reference compound 64, however below 135 nM; read-out: KD values (relative* binding affinities, ranking procedure)
T1 construct: fused on or other part: IgG Fc part (human, since it is captured by goat anti-human Fc antibody), fused on as a capture handle
T1 sequence (P16581 22-175 limits assumed): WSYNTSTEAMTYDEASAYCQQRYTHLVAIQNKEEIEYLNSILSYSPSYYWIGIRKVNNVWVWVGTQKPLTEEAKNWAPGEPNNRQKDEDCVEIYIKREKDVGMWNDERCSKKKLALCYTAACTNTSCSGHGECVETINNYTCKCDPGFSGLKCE
Procedure: The biological evaluation of the E-selectin antagonists was performed by surface plasmon resonance (SPR). For this purpose, an E-selectin/IgG construct was captured onto a BIAcore chip surface bearing covalently linked goat anti-human Fc specific antibody (Biacore Life Sciences, Uppsala, Sweden).
The ranking of the antagonists was performed in order to obtain qualitative information on the binding strength of twenty indole antagonists. For the ranking, SPR signals were recorded at a single concentration (0.05 μM) and divided by the molecular weight of the compounds. The result obtained was normalized to the response obtained with an internal standard (63) in order to avoid problems related to the measurement on different chips with different surfaces. DMSO calibration and double referencing were applied to correct bulk effects and other systematic artifacts (subtraction of reference surface and blank injection).

Compound | Kd [nM]
C[C@@H]1O[C@@H](O[C@@H]2[C@@H](C)C[C@@H](C(=O)NCCc3cn(CCn4ccc5cc([N+](=O)[O-])ccc54)nn3)C[C@H]2O[C@@H]2O[C@H](CO)[C@H](O)[C@H](O[C@@H](CC3CCCCC3)C(=O)O)[C@H]2OC(=O)c2ccccc2)[C@@H](O)[C@H](O)[C@@H]1O [Product 61, (1R,3R,4R,5S)-3-[2-O-Benzoyl-3-O-((1S)-1-carboxy-2-cyclohexyl-ethyl)-(β-D-galactopyranosyl)oxy]-4-[(α-L-fucopyranosyl)oxy]-5-methyl-N-(2-{1-[2-(5-nitro-1H-indol-1-yl)ethyl]-1H-1,2,3-triazol-4-yl}ethyl)cyclohexanecarboxamide] | > 89
C[C@@H]1O[C@@H](O[C@@H]2[C@@H](C)C[C@@H](C(=O)NCCCc3cn(CCCn4ccc5cc(N)ccc54)nn3)C[C@H]2O[C@@H]2O[C@H](CO)[C@H](O)[C@H](O[C@@H](CC3CCCCC3)C(=O)O)[C@H]2OC(=O)c2ccccc2)[C@@H](O)[C@H](O)[C@@H]1O [Product 76, (1R,3R,4R,5S)—N-(3-{1-[3-(5-Amino-1H-indol-1-yl)propyl]-1H-1,2,3-triazol-4-yl}propyl)-3-[2-O-benzoyl-3-O-((1S)-1-carboxy-2-cyclohexyl-ethyl)-(β-D-galactopyranosyl)oxy]-4-[(α-L-fucopyranosyl)oxy]-5-methylcyclohexanecarboxamide] | > 89
CC(=O)Nc1ccc2c(ccn2CCCn2cc(CCCNC(=O)[C@@H]3C[C@H](C)[C@@H](O[C@@H]4O[C@@H](C)[C@@H](O)[C@@H](O)[C@@H]4O)[C@H](O[C@@H]4O[C@H](CO)[C@H](O)[C@H](O[C@@H](CC5CCCCC5)C(=O)O)[C@H]4OC(=O)c4ccccc4)C3)nn2)c1 [Product 77, (1R,3R,4R,5S)—N-(3-{1-[3-(5-Acetamido-1H-indol-1-yl)propyl]-1H-1,2,3-triazol-4-yl}propyl)-3-[2-O-benzoyl-3-O-((1S)-1-carboxy-2-cyclohexyl-ethyl)-(β-D-galactopyranosyl)oxy]-4-[(α-L-fucopyranosyl)oxy]-5-methylcyclohexanecarboxamide] | > 89
C[C@@H]1O[C@@H](O[C@@H]2[C@@H](C)C[C@@H](C(=O)NCCCc3cn(CCCn4ccc5cc(NC(=O)COCCOCCN)ccc54)nn3)C[C@H]2O[C@@H]2O[C@H](CO)[C@H](O)[C@H](O[C@@H](CC3CCCCC3)C(=O)O)[C@H]2OC(=O)c2ccccc2)[C@@H](O)[C@H](O)[C@@H]1O [Product 78, (1R,3R,4R,5S)—N-(3-{1-[3-(5-{2-[2-(2-Aminoethoxy)ethoxy]acetamido}-1H-indol-1-yl)propyl]-1H-1,2,3-triazol-4-yl}propyl)-3-[2-O-benzoyl-3-O-((1S)-1-carboxy-2-cyclohexyl-ethyl)-(β-D-galactopyranosyl)oxy]-4-[(α-L-fucopyranosyl)oxy]-5-methylcyclohexanecarboxamide] | > 89

Results, then the compound that gave them:

Kd [nM] | Compound
> 89 | C[C@@H]1O[C@@H](O[C@@H]2[C@@H](C)C[C@@H](C(=O)NCc3cn(CCn4ccc5cc([N+](=O)[O-])ccc54)nn3)C[C@H]2O[C@@H]2O[C@H](CO)[C@H](O)[C@H](O[C@@H](CC3CCCCC3)C(=O)O)[C@H]2OC(=O)c2ccccc2)[C@@H](O)[C@H](O)[C@@H]1O [Product 57, (1R,3R,4R,5S)-3-[2-O-Benzoyl-3-O-((1S)-1-carboxy-2-cyclohexyl-ethyl)-(β-D-galactopyranosyl)oxy]-4-[(α-L-fucopyranosyl)oxy]-5-methyl-N-({1-[2-(5-nitro-1H-indol-1-yl)ethyl]-1H-1,2,3-triazol-4-yl}methyl)cyclohexanecarboxamide]
> 89 | C[C@@H]1O[C@@H](O[C@@H]2[C@@H](C)C[C@@H](C(=O)NCc3cn(CCCCn4ccc5cc([N+](=O)[O-])ccc54)nn3)C[C@H]2O[C@@H]2O[C@H](CO)[C@H](O)[C@H](O[C@@H](CC3CCCCC3)C(=O)O)[C@H]2OC(=O)c2ccccc2)[C@@H](O)[C@H](O)[C@@H]1O [Product 59, (1R,3R,4R,5S)-3-[2-O-Benzoyl-3-O-((1S)-1-carboxy-2-cyclohexyl-ethyl)-(β-D-galactopyranosyl)oxy]-4-[(α-L-fucopyranosyl)oxy]-5-methyl-N-({1-[4-(5-nitro-1H-indol-1-yl)butyl]-1H-1,2,3-triazol-4-yl}methyl)cyclohexanecarboxamide]
> 89 | C[C@@H]1O[C@@H](O[C@@H]2[C@@H](C)C[C@@H](C(=O)NCCc3cn(CCCn4ccc5cc([N+](=O)[O-])ccc54)nn3)C[C@H]2O[C@@H]2O[C@H](CO)[C@H](O)[C@H](O[C@@H](CC3CCCCC3)C(=O)O)[C@H]2OC(=O)c2ccccc2)[C@@H](O)[C@H](O)[C@@H]1O [Product 62, (1R,3R,4R,5S)-3-[2-O-Benzoyl-3-O-((1S)-1-carboxy-2-cyclohexyl-ethyl)-(β-D-galactopyranosyl)oxy]-4-[(α-L-fucopyranosyl)oxy]-5-methyl-N-(2-{1-[3-(5-nitro-1H-indol-1-yl)propyl]-1H-1,2,3-triazol-4-yl}ethyl)cyclohexanecarboxamide]
> 89 | C[C@@H]1O[C@@H](O[C@@H]2[C@@H](C)C[C@@H](C(=O)NCCCc3cn(CCn4ccc5cc([N+](=O)[O-])ccc54)nn3)C[C@H]2O[C@@H]2O[C@H](CO)[C@H](O)[C@H](O[C@@H](CC3CCCCC3)C(=O)O)[C@H]2OC(=O)c2ccccc2)[C@@H](O)[C@H](O)[C@@H]1O [Product 65, (1R,3R,4R,5S)-3-[2-O-Benzoyl-3-O-((1S)-1-carboxy-2-cyclohexyl-ethyl)-(β-D-galactopyranosyl)oxy]-4-[(α-L-fucopyranosyl)oxy]-5-methyl-N-(3-{1-[2-(5-nitro-1H-indol-1-yl)ethyl]-1H-1,2,3-triazol-4-yl}propyl)cyclohexanecarboxamide]
> 89 | C[C@@H]1O[C@@H](O[C@@H]2[C@@H](C)C[C@@H](C(=O)NCCCc3cn(CCCCn4ccc5cc([N+](=O)[O-])ccc54)nn3)C[C@H]2O[C@@H]2O[C@H](CO)[C@H](O)[C@H](O[C@@H](CC3CCCCC3)C(=O)O)[C@H]2OC(=O)c2ccccc2)[C@@H](O)[C@H](O)[C@@H]1O [Product 67, (1R,3R,4R,5S)-3-[2-O-Benzoyl-3-O-((1S)-1-carboxy-2-cyclohexyl-ethyl)-(β-D-galactopyranosyl)oxy]-4-[(α-L-fucopyranosyl)oxy]-5-methyl-N-(3-{1-[4-(5-nitro-1H-indol-1-yl)butyl]-1H-1,2,3-triazol-4-yl}propyl)cyclohexanecarboxamide]
